We go through one substance from patent US20150191519A1, “VECTORS ENCODING A PARALYTIC PEPTIDE” (Soricimed Biopharma Inc., priority 2002, published 2015).

The subject of one data set is insect nerve tissue. Briefly: calcium ion uptake by excised insect nerve tissue (FURA fluorescence). In kind it is cell-based, flour beetle larvae (meal worms). The conditions noted are these: FIG. 17. Here is the method:
Central nerve pairs running along 5 body segments (including ganglia) were excised from flour beetle larvae (meal worms) and suspended in buffered invertebrate saline containing FURA 2 AM. After 60 minutes, the nerve tissue was removed from this solution, briefly washed in buffered saline and bathed with a solution of pure soricidin for 10 minutes. The nerve tissue was next immersed in a cuvette containing very low calcium ion concentration and a baseline fluorescence value recorded. A bolus of calcium chloride (to a final concentration of 5 mM) was added and, after 5 minutes, the fluorescence was determined. Finally, a bolus of potassium chloride was added to the preparation to a final concentration of 20 mM. The fluorescence was again determined. The control situation was exclusion of the soricidin, substituting instead a sham solution of buffered saline.

The subject of data set [1] is human ovarian carcinoma cell line (OV 2008). Briefly: calcium ion uptake by FURA-loaded ovarian carcinoma cells (fluorescence). In kind it is cell-based. The conditions noted are these: for calcium uptake by OV-2008 cell line: FURA fluorescence after calcium chloride 2.5 mM, calcium chloride 5.0 mM, FIG. 16. Here is the method: A human ovarian carcinoma cell line (OV 2008) was grown in MegaCell supplemented (Sigma Aldrich Chemical Co.) with 3% fetal calf serum (v/v), L-glutamine (584 mg/500 mL), and antibiotics penicillin and streptomycin (50 ug/ml) at 37° C. and in a humidified 5% carbon dioxide atmosphere. After confluence, the cells were harvested by incubation with Trypsin EDTA solution low in calcium and magnesium Dulbecco phosphate buffered saline (DPBS) at 37° C. and gentle shaking to detach them from the culture flask surface. After centrifugation and washing in the calcium-depleted medium, cells were incubated with 5 uM FURA 2 AM for 60 minutes to internalize this calcium sensitive fluorophore. After centrifuging and washing twice with DPBS, cells were allowed to de-esterify the FURA 2 AM for 30 minutes at 37° C., activating the calcium-sensitive FURA. Cells were then incubated with aliquots of a solution of pure soricidin. Fluorescent analysis used excitation at 340 nm and emission at a wavelength of 510 nm. After recording the baseline fluorescence of the cells, a bolus of calcium chloride (to final concentration of 2.5 mM) was delivered to the cell suspension and the fluorescence remeasured. After recording the fluorescence, the sample was treated with a bolus of potassium chloride (final concentration 20 mM) to activate any voltage gated calcium channels. Finally, the cells were treated with another bolus of […] raising the calcium ion concentration to 5.0 mM. The control situation was no treatment with soricidin peptide but with identical other treatments.
This transient receptor potential (TRP) calcium channel was blocked by soricidin. FIG. 16 illustrates

A short description of data set [2]: isoelectric pH by capillary isoelectric focusing. In kind it is physicochemical. The conditions noted are these: migration time 33.9 min; calibrated with pI standard proteins. Here is the method:
The isoelectric pH of the shrew peptide soricidin was determined after calibration of the Beckmann-Coulter P/ACE MDQ Capillary Electrophoresis System with proteins of known isoelectric pH (2.75, 5.10, 5.90 and 9.45) and then co-isoelectric focusing of the standards with soricidin. […] The soricidin migration time (33.9 min) provided a pI of 4.20.

Regarding “soricidin: 54 amino acid paralytic peptide isolated from shrew (Blarina brevicauda) submaxilary saliva gland, sequence of FIG. 1A (DCSQDCAACSILARPAELNTETCILECEGKLSSNDTEGGLCKEFLHPSKVDLPR; listed as Blarina brevicauda)”, the “calcium uptake / calcium channels of insect neural tissue” value with insect nerve tissue is “effectively blocks the general and voltage-gated calcium channels”; with insect nerve tissue (listed as Soricidin) it was “inhibits calcium uptake”. The “increase in fluorescence (FURA/Calcium complex) less than in control” value in the data set on insect nerve tissue (nerve bathed in pure soricidin 10 minutes, calcium chloride and KCl 20 mM challenge) is on record as 92%. Also, the “calcium uptake by OV-2008 cell line” value is given as “inhibits calcium uptake” in data set [1] (KCl 20 mM) and “strongly inhibits calcium uptake” in data set [1] (KCl 20 mM, listed as Soricidin). In data set [1] (OV-2008), the “TRP calcium channel CaT1 (TRPV6) of ovarian carcinoma cells” value is reported as “blocked”. Also, the “small increase in calcium uptake in response to potassium ion challenge” value in data set [1] (OV-2008, KCl 20 mM) was “eliminated”. Further, in data set [1] (OV-2008, increases in amount caused no additional inhibition), the “dose dependence of inhibition of calcium uptake” value is listed as “saturated”. Further, the “isoelectric pH (pI)” value in data set [2] was found to be 4.20.
